Here are results for six compounds from publication PMC4923153, “Protection of Primary Dopaminergic Midbrain Neurons by GPR139 Agonists Supports Different Mechanisms of MPP^+ and Rotenone Toxicity” (Frontiers in Cellular Neuroscience, 2016).

Series [1] has as its system primary DA midbrain neurons. The series is classed as cell-based, mice. To be noted: 24 h. How it is done: Experiments were conducted in accordance with the ethical guidelines of H. Lundbeck A/S and the Danish legislation of animal use for scientific procedures. Cell culture was basically performed as described (Nagel et al., [2008]), with few modifications. Briefly, the mesencephalon floor was dissected from embryonic day (E) 13 mice, tissue pieces collected in HBBS, transferred to 0.1% trypsin, 0.05% DNAse (Sigma-Aldrich DN25–1G) and incubated at 37°C in a humidified atmosphere with 5% CO2 for 20 min; washed in DNAse, homogenized and centrifuged at 200× g, resuspended in medium (DMEM (Gibco 41965–039), 10% FCS, 1% P/S (Gibco, 15140–122), l.5% HEPES (Gibco, 15630–056), 1% Sodium Pyruvate (Gibco, 11360–039)) and plated on poly-L-lysine coated 96-well dishes. The medium was switched to neurobasal medium after 90 min (neurobasal (Gibco 21103–049) with 1% P/S, 2% B27 (Gibco, 17504–044), 1.25% 0.5 mM L-glutamine (Gibco, 25030–024)). […] Plates were stored at 4°C until tyrosine-hydroxylase-positive (TH-positive) neurons were counted using a Thermo Scientific Cellomics® ArrayScan® VTI HCS Reader. […] To ensure that only healthy primary cultures were assessed, we furthermore excluded experiments with total cell counts below Mean minus standard deviation (SD) of the summarized experiments. […]

In series [2] the test system is differentiated SH-SY5Y neurons. To be noted: 24 h incubation; ref Giordano et al., 2012; cited from earlier work.
Series [3] has as its system primary DA midbrain neurons. As to the kind of experiment: Protection of primary DA midbrain neurons against MPP+ toxicity (TH-positive neuron count). The series is classed as cell-based, mice. How it is done:
Experiments were conducted in accordance with the ethical guidelines of H. Lundbeck A/S and the Danish legislation of animal use for scientific procedures. Cell culture was basically performed as described (Nagel et al., [2008]), with few modifications. Briefly, the mesencephalon floor was dissected from embryonic day (E) 13 mice, tissue pieces collected in HBBS, transferred to 0.1% trypsin, 0.05% DNAse (Sigma-Aldrich DN25–1G) and incubated at 37°C in a humidified atmosphere with 5% CO2 for 20 min; washed in DNAse, homogenized and centrifuged at 200× g, resuspended in medium (DMEM (Gibco 41965–039), 10% FCS, 1% P/S (Gibco, 15140–122), l.5% HEPES (Gibco, 15630–056), 1% Sodium Pyruvate (Gibco, 11360–039)) and plated on poly-L-lysine coated 96-well dishes. The medium was switched to neurobasal medium after 90 min (neurobasal (Gibco 21103–049) with 1% P/S, 2% B27 (Gibco, 17504–044), 1.25% 0.5 mM L-glutamine (Gibco, 25030–024)). After 6 days in vitro (DIV), cultures were treated with 1 μM of three different GPR139 agonists and in some experiments, concomitantly, with 10 μM of the antagonist for1 h, before exposing them to 0–1 μM MPP^+, 0–50 μM 6-OHDA or 0–100 nM rotenone for 24 h. For the MPP^+ treated cultures, it was also tested whether the effect of the GPR139 agonists could be blocked by concomitantly applying 10 μM GPR139 antagonist (IC50 3 μM). Subsequently, cells were fixed in 4% PFA/PBS for 10 min, washed with PBS, incubated in 0.5% BSA/0.1% Triton-X/5% porcine serum for 20 min, and incubated for 24 h in rabbit anti-tyrosine hydroxylase antibodies (1:1000 in PBS, Millipore AB152); washed 2 × 5 min in PBS. Secondary antibodies (Alexa 488 rabbit) were applied 1:200 in PBS with 0.2 μg/ml Hoechst dye for 1 h and washed 2 × 5 min in PBS. One drop of DAKO fluorescent mounting medium were applied into each well. Plates were stored at 4°C until tyrosine-hydroxylase-positive (TH-positive) neurons were counted using a Thermo Scientific Cellomics® ArrayScan® VTI HCS Reader. Results were normalized against control condition and compared. Experiments were only included in the evaluation if at least 30% cell death was induced at the highest toxin concentration compared to non-treated control wells. To ensure that only healthy primary cultures were assessed, we furthermore excluded experiments with total cell counts below Mean minus standard deviation (SD) of the summarized experiments. […]
To examine whether GPR139 agonists protect against toxin-induced DA cell death, we first treated cultured DA midbrain neurons with the GPR139 agonists and MPP^+ . Subsequently, we determined survival of TH-positive neurons.
Figure 8 Three different GPR139 surrogate agonists protect primary dopaminergic (DA) midbrain neurons against 1-methyl-4-phenyl-pyridinium ionMPP^+ toxicity. […] TH-positive neurons were counted and normalized to numbers under control conditions. […] Each data point is calculated from 12 (0 μM and 1 μM MPP^+ concentrations); 4 (0.125 μM); 7 (0.25 μM); or 8 (0.5 μM) independent measurements.
Primary midbrain cultures were pretreated with the indicated amount of GPR139 agonist compound 3 and with either vehicle ( [drawing 5] ), or 1 μM MPP^+ ( [drawing 6] ); or MPP^+ with 10 μM of the antagonist compound 4 ( [drawing 7] ), or with the antagonist compound 4 alone ( [drawing 8] ). The number of TH-positive neurons was determined 24 h later and normalized to control conditions. […]

Series [4] deals with T1, human GPR139 receptor (Homo sapiens, UniProt Q6DWJ6).
T1 construct: expressed in transfected cells; host or cells: CHO-K1
T1 sequence (Q6DWJ6 1-353): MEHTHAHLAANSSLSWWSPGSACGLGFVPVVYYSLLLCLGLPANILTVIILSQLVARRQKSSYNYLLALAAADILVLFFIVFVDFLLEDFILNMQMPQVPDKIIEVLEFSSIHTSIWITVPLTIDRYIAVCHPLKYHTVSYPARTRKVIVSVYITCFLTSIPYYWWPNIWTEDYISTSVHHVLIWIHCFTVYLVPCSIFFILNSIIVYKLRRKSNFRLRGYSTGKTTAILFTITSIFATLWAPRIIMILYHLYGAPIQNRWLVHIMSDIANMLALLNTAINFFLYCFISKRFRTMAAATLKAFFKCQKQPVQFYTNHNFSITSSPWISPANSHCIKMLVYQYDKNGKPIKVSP
As to the kind of experiment: GPR139 calcium mobilization assay (CHO-K1 cells stably expressing the receptor). It counts as cell-based. To be noted: inhibition of agonist-induced stimulation (compound 1 at EC85); read-out: IC50 (GPR139 antagonist). How it is done: EC50 and IC50 for all compounds were determined as described (Shi et al., [2011]).
All compounds were further characterized using GPR139-based Ca^2+ mobilization assays (Figure 5).
Figure 5 Additional characterization of GPR139 compounds using kinetic fluorescence measurements and concentration-response determination in calcium mobilization assays. (A–D) Examples for the kinetic of relative fluorescence units (RFU) for compound 1 and 4 and related controls, involving a two-step addition protocol. (A) Cellular fluorescence response to addition of buffer (approximately at time 0:00 min) and a second addition of buffer at 3:20 min. (B) Cellular fluorescence response to addition of the Ca^2+ ionophore and reference compound for complete release of Ca^2+ from intracellular stores, ionomycin. (C) Cellular response to addition of 10 μM compound 1 at time 0:00. (D) Cellular fluorescence in response to antagonist compound 4 (at 0:00, 50 μM) and addition of agonist compound 1 at EC85 concentration. […]
Standard molecular cloning techniques were used to generate Chinese hamster ovary (CHO-K1) cells stably expressing the human GPR139 receptor. […] Calcium flux was measured using a Hamamatsu FDSS7000 imaging-based plate reader (Hamamatsu Photonics) using 480 nm excitation light and emitted fluorescent light passed through a 525 nm emission filter and detected by a CCD camera. […]

The subject of another series is SH-SY5Y cells. Further details: method as in Song et al., 2012. To be noted: ref Song et al., 2012; cited from earlier work.
Series [5] concerns the target norepinephrine transporter (Homo sapiens, UniProt P23975). On the set-up: method as in Shi et al., 2011. To be noted: 10 μM; ref Shi et al., 2011; cited from earlier work.
The test system of series [6] is primary DA midbrain neurons. The series can be described thus: Protection of primary DA midbrain neurons against rotenone toxicity (TH-positive neuron count). The series is classed as cell-based, mice. To be noted: 1 μM agonist 1 h, 0-100 nM rotenone 24 h, n = 4. How it is done:
(§1) Experiments were conducted in accordance with the ethical guidelines of H. Lundbeck A/S and the Danish legislation of animal use for scientific procedures. Cell culture was basically performed as described (Nagel et al., [2008]), with few modifications. […] Plates were stored at 4°C until tyrosine-hydroxylase-positive (TH-positive) neurons were counted using a Thermo Scientific Cellomics® ArrayScan® VTI HCS Reader. […] To ensure that only healthy primary cultures were assessed, we furthermore excluded experiments with total cell counts below Mean minus standard deviation (SD) of the summarized experiments. […]
Mesencephalic cultures were treated with 1 μM of either one of the GPR139 agonists compound 1 ( [drawing 13] ), compound 2 ( [drawing 14] ), or compound 3 ( [drawing 15] ), or vehicle ( [drawing 16] ) for 1 h before exposing them to 0–100 nM of rotenone. […] TH-positive neurons were counted and normalized to control numbers (100%).

For series [7], the target named is T1, human GPR139 receptor. On the set-up: method as in Shi et al., 2011. The following applies: Ca2+ mobilization; ref Shi et al., 2011; read-out: EC50 (GPR139 agonist); cited from earlier work. Background: A change in cytosolic calcium serves as a functional read-out for many receptors and channels.
Series [8] relates to primary DA midbrain neurons. The series can be described thus: Protection of primary DA midbrain neurons against 6-OHDA toxicity (TH-positive neuron count). It counts as cell-based, mice. To be noted: 1 μM agonist 1 h, 0-50 μM 6-OHDA 24 h. How it is done: as §1
Neuronal midbrain cultures were pretreated with 1 μM of either one of the agonists compound 1 ( [drawing 9] ), compound 2 ( [drawing 10] ), or compound 3 ( [drawing 11] ), or vehicle ( [drawing 12] ) for 1 h, followed by treatment with the indicated concentrations of 6-hydroxydopamine (6-OHDA) for 24 h. TH-positive neurons were counted and normalized to control numbers.

Another series deals with DAT (Homo sapiens, UniProt Q01959). Further details: method as in Shi et al., 2011. To be noted: 10 μM; ref Shi et al., 2011; cited from earlier work.
Sequence of DAT (Q01959 whole entry, species assumed): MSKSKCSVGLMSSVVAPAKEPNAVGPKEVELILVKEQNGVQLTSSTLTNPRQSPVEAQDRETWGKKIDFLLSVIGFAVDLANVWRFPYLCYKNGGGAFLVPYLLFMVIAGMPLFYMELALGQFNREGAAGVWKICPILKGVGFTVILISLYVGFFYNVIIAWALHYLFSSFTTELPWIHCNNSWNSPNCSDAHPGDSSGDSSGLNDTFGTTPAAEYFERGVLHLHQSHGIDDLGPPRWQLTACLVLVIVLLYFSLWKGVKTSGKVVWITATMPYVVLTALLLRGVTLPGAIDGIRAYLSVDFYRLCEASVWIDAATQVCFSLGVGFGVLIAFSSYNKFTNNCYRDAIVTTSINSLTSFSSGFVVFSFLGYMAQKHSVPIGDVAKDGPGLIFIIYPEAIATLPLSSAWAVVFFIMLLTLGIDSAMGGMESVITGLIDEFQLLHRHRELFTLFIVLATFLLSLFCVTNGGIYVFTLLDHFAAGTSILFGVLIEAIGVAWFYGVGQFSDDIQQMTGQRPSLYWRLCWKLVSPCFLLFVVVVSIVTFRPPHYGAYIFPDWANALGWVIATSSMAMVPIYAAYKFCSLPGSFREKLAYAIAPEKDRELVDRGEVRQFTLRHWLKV
On the set-up of series [9]: method as in Shi et al., 2011. To be noted: ref Shi et al., 2011; cited from earlier work.

pEC50, pIC50: −log10 of the molar value. Where “and” joins values, the source holds several entries; their conditions need not be identical. Equal values may be shown once. Read-outs that look alike come from different tables or passages of the source.

Sequence of norepinephrine transporter (P23975 whole entry, species assumed): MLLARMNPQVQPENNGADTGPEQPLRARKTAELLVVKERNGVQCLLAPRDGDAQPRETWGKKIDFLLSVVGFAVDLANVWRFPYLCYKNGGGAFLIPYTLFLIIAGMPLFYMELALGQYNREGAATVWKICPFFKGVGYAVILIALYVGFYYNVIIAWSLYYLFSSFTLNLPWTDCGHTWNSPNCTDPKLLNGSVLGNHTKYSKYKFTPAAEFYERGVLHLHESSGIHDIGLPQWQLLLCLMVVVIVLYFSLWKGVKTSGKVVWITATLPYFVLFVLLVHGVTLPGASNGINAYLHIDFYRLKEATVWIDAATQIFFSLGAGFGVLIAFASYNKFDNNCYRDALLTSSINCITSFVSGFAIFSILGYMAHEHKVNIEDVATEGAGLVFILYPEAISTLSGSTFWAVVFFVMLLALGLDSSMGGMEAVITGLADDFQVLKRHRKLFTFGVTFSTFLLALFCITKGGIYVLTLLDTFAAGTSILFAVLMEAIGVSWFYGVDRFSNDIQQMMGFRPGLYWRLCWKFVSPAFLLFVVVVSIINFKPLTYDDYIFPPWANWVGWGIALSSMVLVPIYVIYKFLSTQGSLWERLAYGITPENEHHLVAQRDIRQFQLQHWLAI

As for `C[n+]1ccc(-c2ccccc2)cc1` [MPP^+, 1-methyl-4-phenylpyridinium], in series [1] (1 μM MPP+), the “average DA neuronal cell death” value was found to be 40%. Further, the “concentration giving 50% cell death” value in [2] was 5000 µM.
What is called pIC50 is the negative decadic logarithm of the IC50, by convention in mol/L. On to `Cc1c(CC(Cl)(Cl)Cl)c2c(n1-c1ccc(F)cc1)CCCC2=O` [compound 4, 1-(4-Fluoro-phenyl)-2-methyl-3-(2,2,2-trichloro-ethyl)-1,5,6,7-tetrahydro-indol-4-one, reference compound], for which, in [3] (10 μM antagonist co-applied with agonist, 1 μM MPP+), the “effect of antagonist on protection by the agonists against MPP+” value is given as “blocked the protective effect”. Besides, the “effect of antagonist alone on DA cell survival” value in series [3] (10 μM antagonist, no MPP+) is on record as “did not have an effect”. In addition, at human GPR139 receptor [4], the pIC50 was 5.13 and 5.52.
`COc1ccc(CCc2cc(OC)c(O)c(OC)c2)cc1OC` [Chrysotoxine]: in the series with SH-SY5Y cells, the “antagonism of MPP+ toxicity” value was “could antagonize” and the “antagonism of rotenone toxicity” value is on record as “not rotenone”.
For the compound `C=C(C)[C@H]1Cc2c(ccc3c2O[C@@H]2COc4cc(OC)c(OC)cc4[C@@H]2C3=O)O1` [rotenone], the “average DA neuronal cell death” value in series [1] (100 nM rotenone) came out at 60%. Further, the “concentration giving 50% cell death” value in series [2] was 0.005 µM.
`NCCc1cc(O)c(O)cc1O` [6-OHDA, 6-hydroxydopamine]: in series [2], the “concentration giving 50% cell death” value was 100 µM.
Broadly, the pEC50 is −log10 of the EC50, conventionally taken in molar units. Consider `COc1cc(OC)cc(C(=O)NNC(=O)Nc2cccc3ccccc23)c1` [compound 1, 2-(3,5-Dimethoxybenzoyl)-N-(1-naphthyl)-hydrazinecarboxamide], for which, in series [5], the “inhibition of binding to the norepinephrine transporter” value is −8%. The “protection against rotenone toxicity” value in series [6] is “do not protect”. The “protection against MPP+ toxicity” value in [3] (1 μM agonist 1 h, 1 μM MPP+ 24 h, p ≤ 0.05 vs vehicle) was “significant”. In addition, the negative logarithm of the EC50 (pEC50) at human GPR139 receptor [7] is 7.41. The “protection against 6-OHDA toxicity” value in series [8] is reported as “do not protect”. In addition, the “inhibition of binding to the DAT” value at DAT was 4%. Moreover, in series [9], the “ADME properties for in vivo testing” value is recorded as “does not hold the ADME properties necessary for in vivo testing”.
